For 21 molecules, T/C results are on record in PubChem BioAssay AID330 (DTP/NCI, 2004).

The test system of this experiment is P388 leukemia ip, CD2F1 mice, survival T/C. As to the kind of experiment: NCI In Vivo Anticancer Drug Screen. Data for tumor model P388 Leukemia (intraperitoneal) in CD2F1 (CDF1) mice. The conditions noted are these: endpoint: median survival time, higher = longer survival. Summed up:
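Mice carrying the transplanted tumor received test compound or vehicle. Survival was recorded in each group, and the value is the treated-group measurement divided by that of the vehicle-treated control group.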

The mark [1] stands for this setting: dose: 15.0 mg/kg/injection, schedule: Q01DX005 (ip), vehicle: Klucel + Tween-80.
[2] abbreviates: dose: 30.0 mg/kg/injection, schedule: Q01DX005 (ip), vehicle: Klucel + Tween-80.
Where [3] appears, read: dose: 25.0 mg/kg/injection, schedule: Q01DX009 (ip), vehicle: saline with Tween-80.
Where [4] appears, read: dose: 50.0 mg/kg/injection, schedule: Q01DX009 (ip), vehicle: saline with Tween-80.
Where [5] appears, read: dose: 100.0 mg/kg/injection, schedule: Q01DX009 (ip), vehicle: saline with Tween-80.
The mark [6] stands for this setting: dose: 50.0 mg/kg/injection, schedule: Q01DX005 (ip), vehicle: Klucel (hydroxypropylcellulose) (HPC).
Setting [7] is: dose: 100.0 mg/kg/injection, schedule: Q01DX005 (ip), vehicle: Klucel (hydroxypropylcellulose) (HPC).
The mark [8] stands for this setting: dose: 200.0 mg/kg/injection, schedule: Q01DX005 (ip), vehicle: Klucel (hydroxypropylcellulose) (HPC).
Where [9] appears, read: dose: 60.0 mg/kg/injection, schedule: Q01DX005 (ip), vehicle: Klucel (hydroxypropylcellulose) (HPC).
[10] abbreviates: dose: 6.25 mg/kg/injection, schedule: Q01DX009 (ip), vehicle: suspension in saline.
Setting [11] is: dose: 12.5 mg/kg/injection, schedule: Q01DX009 (ip), vehicle: saline with Tween-80.
[12] abbreviates: dose: 0.78 mg/kg/injection, schedule: Q01DX009 (ip), vehicle: saline.
Where [13] appears, read: dose: 200.0 mg/kg/injection, schedule: Q01DX009 (ip), vehicle: saline with Tween-80.

The structures appear in SMILES notation. Several values for one entry are separate records, joined by “and”; a condition that tells them apart may be missing. Equal entries are not always repeated. Toxic doses and inconclusive results are not listed.

With `CSCSCC(CO)NC(=O)/C=C/c1c[nH]c(=O)[nH]c1=O` (centres undefined), the T/C reads like this: (dose: 1.0 mg/kg/injection, schedule: Q01DX009 (ip), vehicle: other) 92 % of control; (dose: 2.0 mg/kg/injection, schedule: Q01DX009 (ip), vehicle: other) 97 % of control; (dose: 4.0 mg/kg/injection, schedule: Q01DX009 (ip), vehicle: other) 98 % of control; (dose: 8.0 mg/kg/injection, schedule: Q01DX009 (ip), vehicle: other) 93 % of control; (dose: 16.0 mg/kg/injection, schedule: Q01DX009 (ip), vehicle: other) 102 % of control; (dose: 32.0 mg/kg/injection, schedule: Q01DX009 (ip), vehicle: other) 107 % of control.

Turning to `OCC#CCOCC(O)CCl` (centres undefined), the T/C reads like this: (dose: 12.5 mg/kg/injection, schedule: Q01DX009 (ip), vehicle: water) 103 % of control; (dose: 25.0 mg/kg/injection, schedule: Q01DX009 (ip), vehicle: water) 108 % of control; (dose: 50.0 mg/kg/injection, schedule: Q01DX009 (ip), vehicle: water) 107 % of control; (dose: 100.0 mg/kg/injection, schedule: Q01DX009 (ip), vehicle: water) 98 % of control; (dose: 200.0 mg/kg/injection, schedule: Q01DX009 (ip), vehicle: water) 103 % of control.

For `COc1ccc2c(c1)CCC(c1nc3cccc([N+](=O)[O-])c3[nH]c1=O)=C2O`, the T/C runs as follows: (dose: 7.5 mg/kg/injection, schedule: Q01DX005 (ip), vehicle: Klucel + Tween-80) 91 % of control; under setting [1], 94 % of control; under setting [2], 92 % of control.

On to `OCC1OC(Oc2ncccn2)C(O)C1O` (centres undefined), for which the T/C is, setting by setting: (dose: 50.0 mg/kg/injection, schedule: Q01DX005 (ip), vehicle: saline) 97 % of control; (dose: 50.0 mg/kg/injection, schedule: Q01DX005 (ip), vehicle: suspension in saline) 99 % of control; (dose: 100.0 mg/kg/injection, schedule: Q01DX005 (ip), vehicle: saline) 99 % of control; (dose: 100.0 mg/kg/injection, schedule: Q01DX005 (ip), vehicle: suspension in saline) 99 % of control; (dose: 200.0 mg/kg/injection, schedule: Q01DX005 (ip), vehicle: saline) 101 % of control; (dose: 200.0 mg/kg/injection, schedule: Q01DX005 (ip), vehicle: suspension in saline) 98 % of control. In addition, the T/C reads like this: (dose: 400.0 mg/kg/injection, schedule: Q01DX005 (ip), vehicle: saline) 104 % of control; (dose: 400.0 mg/kg/injection, schedule: Q01DX005 (ip), vehicle: suspension in saline) 99 % of control.

In the case of `CSC1(CC(=O)N(C)C)C(=O)N(C)c2ccccc21` (centres undefined), the T/C under setting [3] is 100 % of control, the T/C under setting [4] was 94 % of control and the T/C under setting [5] was 115 % of control.

Turning to `NC(=O)N=Nc1ccc(Br)cc1`, the T/C runs as follows: (dose: 50.0 mg/kg/injection, schedule: Q01DX005 (ip), vehicle: saline with Tween-80) 102 % of control; (dose: 100.0 mg/kg/injection, schedule: Q01DX005 (ip), vehicle: saline with Tween-80) 102 % of control; (dose: 200.0 mg/kg/injection, schedule: Q01DX005 (ip), vehicle: saline with Tween-80) 93 % of control.

On to `Cc1ccc(OCCCCBr)c(Br)c1`, for which the T/C reads like this: under setting [6], 105 % of control; under setting [7], 101 % of control; under setting [8], 97 % of control.

For the molecule `CCOC(=O)c1nnn(-c2cncc(-n3nnc(C(=O)OCC)c3C(=O)OCC)n2)c1C(=O)OCC`, the T/C reads like this: under setting [9], 98 % of control; (dose: 120.0 mg/kg/injection, schedule: Q01DX005 (ip), vehicle: Klucel (hydroxypropylcellulose) (HPC)) 102 % of control; (dose: 240.0 mg/kg/injection, schedule: Q01DX005 (ip), vehicle: Klucel (hydroxypropylcellulose) (HPC)) 103 % of control.

Consider `CCCCCCCCCCCN(CCCCCCCCCCC)CC(O)c1cc2c(c3ccccc13)CCCC2` (centres undefined), for which the T/C by setting is: under setting [6], 98 % of control; under setting [7], 100 % of control; under setting [8], 96 % of control.

`CCCS/C(N)=N/N=C/c1ccc([N+](=O)[O-])o1`: the T/C by setting is: under setting [10], 102 % of control; (dose: 12.5 mg/kg/injection, schedule: Q01DX009 (ip), vehicle: suspension in saline) 92 % of control; (dose: 25.0 mg/kg/injection, schedule: Q01DX009 (ip), vehicle: suspension in saline) 91 % of control; (dose: 50.0 mg/kg/injection, schedule: Q01DX009 (ip), vehicle: suspension in saline) 109 % of control.

As to `Cc1coc2c1CCC(C)C2` (centres undefined), the T/C reads like this: under setting [11], 92 % of control; under setting [3], 107 % of control; under setting [4], 100 % of control and 110 % of control.

On to `N#CC(C#N)=C(C#N)c1ccccc1`, for which the T/C runs as follows: under setting [11], 90 % of control; under setting [3], 113 % of control.

Turning to `[CH3][Sn]([CH3])([CH3])[Cl]`, the T/C (dose: 0.19 mg/kg/injection, schedule: Q01DX009 (ip), vehicle: saline) is 100 % of control; the T/C (dose: 0.39 mg/kg/injection, schedule: Q01DX009 (ip), vehicle: saline) is 97 % of control; the T/C under setting [12] is 101 % of control.

Consider `CCOC(=O)C(=CNNCCC#N)C(=O)OCC`, for which the T/C was 90 % of control under setting [4], 90 % of control under setting [5] and 95 % of control under setting [13].

Turning to `O=CC1=CSC(=C2SC=CS2)S1`, the T/C was 95 % of control under setting [1]; 87 % of control under setting [2]; 101 % of control under setting [9]; 106 % of control (dose: 60.0 mg/kg/injection, schedule: Q01DX005 (ip), vehicle: Klucel + Tween-80).

Regarding `CCC(=O)Oc1ccc(C2N(Cc3ccc(N(C)C)cc3)CCCN2Cc2ccc(N(C)C)cc2)cc1`, the T/C under setting [4] is 90 % of control and the T/C under setting [13] was 90 % of control.

As for `NNC(=S)N/N=C/c1ccccn1`, the T/C runs as follows: under setting [12], 99 % of control; (dose: 1.56 mg/kg/injection, schedule: Q01DX009 (ip), vehicle: saline) 102 % of control and 117 % of control; (dose: 1.56 mg/kg/injection, schedule: Q01DX009 (ip), vehicle: suspension in saline) 107 % of control; (dose: 3.12 mg/kg/injection, schedule: Q01DX009 (ip), vehicle: suspension in saline) 109 % of control; (dose: 6.25 mg/kg/injection, schedule: Q01DX009 (ip), vehicle: saline with Tween-80) 100 % of control; (dose: 6.25 mg/kg/injection, schedule: Q01DX009 (ip), vehicle: saline) 110 % of control. The T/C was 111 % of control under setting [10]; 150 % of control (dose: 12.5 mg/kg/injection, schedule: Q01DX009 (ip), vehicle: saline); 122 % of control (dose: 16.5 mg/kg/injection, schedule: Q01DX009 (ip), vehicle: saline sonified); 150 % of control under setting [3]; 154 % of control and 170 % of control (dose: 25.0 mg/kg/injection, schedule: Q01DX009 (ip), vehicle: saline).

As to `CC1CCC2C(OC(=O)C23CO3)C2(C)C(=O)C=CC12` (centres undefined), the T/C is 86 % of control (dose: 2.5 mg/kg/injection, schedule: Q01DX009 (ip), vehicle: saline + alcohol); 100 % of control (dose: 5.0 mg/kg/injection, schedule: Q01DX009 (ip), vehicle: saline + alcohol); 101 % of control (dose: 10.0 mg/kg/injection, schedule: Q01DX009 (ip), vehicle: saline + alcohol); 99 % of control (dose: 20.0 mg/kg/injection, schedule: Q01DX009 (ip), vehicle: saline + alcohol).

Take `Cc1ccc(S(=O)(=O)N(Cc2ccccc2)S(=O)(=O)c2ccc(C)cc2)cc1`: the T/C under setting [3] was 110 % of control, the T/C under setting [4] was 118 % of control and the T/C under setting [5] is 101 % of control.

For the molecule `FC(F)(F)C(F)(F)C(F)(F)C(F)(F)C(F)(F)C(F)(F)C[CH2][Sn]([Cl])([Cl])[CH2]CC(F)(F)C(F)(F)C(F)(F)C(F)(F)C(F)(F)C(F)(F)F`, the T/C by setting is: (dose: 60.0 mg/kg/injection, schedule: Q01DX005 (ip), vehicle: saline with Tween-80) 118 % of control; (dose: 120.0 mg/kg/injection, schedule: Q01DX005 (ip), vehicle: saline with Tween-80) 119 % of control.

As to `CCCCCCCCCCCCCCCCCC[n+]1cccc(C2CCCN2C)c1` (centres undefined) (tested in a mixture with another compound), the T/C (dose: 25.0 mg/kg/injection, schedule: Q01DX009 (ip), vehicle: Klucel (hydroxypropylcellulose) (HPC)) was 104 % of control.
